Columns and labels:
BMECs [1] = assay: In vitro endothelial-to-mesenchymal transition (endoMT) assays; assay type: cell-based, mouse; conditions: TGF-β1 10 ng/ml
Description: In vitro endothelial-to-mesenchymal transition (endoMT) assays. 5×10^3 BMECs were seeded in 24-well plate for endoMT induction. As positive control, recombinant TGF-β1 protein ([…]) was added to BMECs for 72 hr to induce in vitro endoMT. Cells were considered spindle-shaped when the diameter at their longest axis to be 1.5-fold greater than the average diameter of untreated cobblestone BMECs. Myelin debris (1 mg/ml) was added to BMECs for 1, 3, 5, 7, and 10 days and culture medium was changed every 3 days, followed by morphological observation of spindle-shape cells. α-SMA staining was used to confirm the mesenchymal transition. Percentage of spindle-shaped cells and percentage of a-SMA^+/CD31^+ were quantified. To examine the role of TGF-β in myelin-induced endoMT, pan TGF-β neutralizing antibody (20 μg/ml) was added to BMECs together with myelin debris for 10 days and re-supplemented every 3 days.

myelin-ECs (BMECs) = assay: Myelin degradation into neutral lipids (Oil Red O staining) in myelin-BMECs after autophagy drug treatment; assay type: cell-based, mouse; conditions: 3-MA 2 mM 48 hr (1 mM elsewhere in the source), chloroquine 10 μM 24 hr, rapamycin 1 μM 24 hr
Description: Oil Red O (ORO) staining. ORO staining was performed to detect intracellular neutral lipid accumulation in injured spinal cords and cultured BMECs. Spinal frozen sections or fixed cells were dehydrated in 100% propylene glycol for 5 min, then stained with 0.5% ORO solution at 60° C. for 8 min. The samples were then processed with 85% propylene glycol for 5 min followed by distilled water rinsing for 3 times. Stained samples were imaged with a confocal laser scanning microscope. Starvation and drug treatments for autophagy assays. BMECs cultured with 5% FBS containing medium were used as negative control for autophagy. The positive control for autophagy induction, BMECs, were starved with Hanks Balanced Salt Solution for 6 hr to induce autophagy. 10 μM chloroquine, an inhibitor of lysosomes, or 1 μM of rapamycin, an inducer of autophagy, was added to BMECs cultures for 24 hr after myelin debris treatment. 2 mM of 3-MA, a PI3K inhibitor of autophagy was cultured with ECs for 48 hr, starting from the last 24 hr treatment of myelin debris to the subsequent 24 hr of medium wash. Cells grown on coverslips were fixed and stained with Oil Red 0 for detection of myelin-derived lipids as above described.

BMECs [2] = conditions: 1 mM 3-MA (48 hr), 10 μM chloroquine (24 hr)
Description: Propidium iodide (PI) staining assay for cell death analysis. Wild-type BMECs or Atg5 knockout BMECs were cultured with DMEM medium containing 5% FBS in 24-well plate. To test the toxicity of different autophagy-related drugs, BMECs were treated with or without myelin debris and were treated with or without 1 mM 3-MA (48 hr), 10 μM chloroquine (24 hr), or 1 μM rapamycin (24 hr). After reaching 70% confluence, cells were washed with 1×PBS and fixed with 4% PFA. The fixed cells were stained with propidium iodide and Hoechst, followed by imaging and quantification of PI positive nucleus using Nikon Element software.

[3] = q-PCR, immunostaining and western blot

| Compound | BMEC morphology (induction of endoMT) (BMECs [1]; 3 days) | CD31 expression in BMECs (BMECs [1]; [3]) | a-SMA expression in BMECs (BMECs [1]; [3]) | myelin degradation into neutral lipids (ORO+ lipids) in myelin-ECs (myelin-ECs (BMECs)) | cell toxicity (cell death by PI staining) (BMECs [2]) |
| --- | --- | --- | --- | --- | --- |
| TGF-β1: Recombinant mouse TGF-β1 (#5231), positive control, strong inducer of endoMT | elongated and exhibited the same spindle-like morphology as fibroblasts | markedly downregulated CD31 expression | strongly induced a-SMA expression |  |  |
| Cn1cnc(N)c2ncnc1-2 [3-MA, 3-methyladenine] |  |  |  | significantly inhibited myelin degradation into neutral lipids |  |
| CCN(CC)CCCC(C)Nc1ccnc2cc(Cl)ccc12 (stereo not drawn) [chloroquine] |  |  |  | significantly inhibited myelin degradation into neutral lipids | without causing apparent cell toxicity |

From US20200165608A1, “INHIBITION OF VASCULAR ENDOTHELIAL CELL-MEDIATED PHAGOCYTIC PROCESSES FOR TREATMENT OF DEMYELINATING CONDITIONS” (FLORIDA STATE UNIVERSITY RESEARCH FOUNDATION, INC., priority 2018, published 2020)
